This is an account of results in patent US8642788B2, “Activators of executioner procaspases 3, 6 and 7” (The Regents of the University of California, priority 2008, dated 2014).

Holding throughout (format): biochemical
In one assay the target is T1, procaspase-6 (Homo sapiens, UniProt P55212).
T1 sequence (P55212 1-293): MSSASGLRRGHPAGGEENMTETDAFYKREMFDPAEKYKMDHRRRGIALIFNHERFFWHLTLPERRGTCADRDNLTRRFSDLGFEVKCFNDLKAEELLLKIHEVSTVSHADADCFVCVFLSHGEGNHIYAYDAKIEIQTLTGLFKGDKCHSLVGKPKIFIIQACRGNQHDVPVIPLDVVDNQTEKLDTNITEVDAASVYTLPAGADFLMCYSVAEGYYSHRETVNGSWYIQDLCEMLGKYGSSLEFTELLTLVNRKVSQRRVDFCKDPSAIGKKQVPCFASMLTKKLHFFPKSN
The assay is described as follows: Executioner procaspase-6 activation assay (Ac-VEID-AFC fluorogenic substrate). As to conditions: incubation with compound for 5 h at 37° C.; 100 nM procaspase. The procedure, abridged:
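Procaspase at 100 nM incubated with compound (100 nM–100 μM) in 50 mM HEPES pH 7.4, KCl, DTT, 0.01% Triton X-100, 3% DMSO, 37 °C for 5 h; then 25 μM Ac-DEVD-AFC (procaspase-7) or Ac-VEID-AFC (procaspase-6), kinetic fluorescence 30 min (ex 365/em 495); EC50 reported.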

The next assay has as its target T2, procaspase-3 (Homo sapiens, UniProt P42574).
T2 construct: His6 (C); made in house; host or cells: E. coli BL21(DE3)RP, pET-23b
T2 sequence (P42574 1-277): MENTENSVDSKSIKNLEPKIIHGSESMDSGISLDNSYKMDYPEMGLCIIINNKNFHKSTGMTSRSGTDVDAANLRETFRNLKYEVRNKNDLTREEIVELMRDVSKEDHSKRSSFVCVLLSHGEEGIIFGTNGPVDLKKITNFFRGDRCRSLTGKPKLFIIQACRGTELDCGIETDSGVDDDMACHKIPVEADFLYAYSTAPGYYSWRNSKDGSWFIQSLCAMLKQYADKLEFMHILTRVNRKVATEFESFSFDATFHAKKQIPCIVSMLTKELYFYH
The assay is described as follows: Executioner procaspase-3 activation assay (Ac-DEVD-AFC fluorogenic substrate). The procedure, abridged: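 Procaspase-3 at 100 nM was incubated with activating compounds (100 nM to 100 uM) in 50 mM HEPES pH 7.4, 50 mM KCl, 1 mM DTT and 0.01% Triton-X100, the detergent limiting aggregation artefacts. Protein, substrate and inhibitor were kept as frozen aliquots and thawed just before use.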

The target of another assay is T3, procaspase-7 (Homo sapiens, UniProt P55210).
T3 construct: His6 (C); made in house; host or cells: E. coli BL21(DE3)RP, pET-21b
T3 sequence (P55210 1-303): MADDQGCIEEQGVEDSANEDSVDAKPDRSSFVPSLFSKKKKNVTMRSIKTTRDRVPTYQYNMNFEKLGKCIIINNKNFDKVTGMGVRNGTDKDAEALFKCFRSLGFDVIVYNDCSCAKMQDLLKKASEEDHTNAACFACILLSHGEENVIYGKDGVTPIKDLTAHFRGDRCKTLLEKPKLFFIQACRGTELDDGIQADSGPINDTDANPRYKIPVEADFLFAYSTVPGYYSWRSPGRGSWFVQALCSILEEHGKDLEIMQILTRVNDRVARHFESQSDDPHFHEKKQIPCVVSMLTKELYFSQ
The experiment in a line: Executioner procaspase-7 activation assay (Ac-DEVD-AFC fluorogenic substrate). As to conditions: incubation with compound for 5 h at 37° C.; 100 nM procaspase. The method, then: The executioner procaspase-3, -6 and -7 activation assay protocol involves incubating the target protein at the physiologically-relevant concentration of 100 nM with activating compounds (ranging from 100 nM to 100 uM) in a total volume of 50 μL consisting of a reaction buffer of 50 mM HEPES, pH 7.4, 50 mM KCl, 1 mM DTT and 0.01% Triton-X100 (to reduce false positive hits due to compound aggregation). The procaspase/small molecule incubations are then agitated at 37° C. and assayed at various time points by addition of the fluorogenic peptide substrate 7-Amino-4-trifluoromethylcoumarin-DEVD (Ac-DEVD-AFC) (procaspases-3, -7) or Ac-VEID-AFC (procaspase-6) to a final concentration of 25 μM and analyzed by a kinetic 30 minute assay (excitation 365 nm and emission 495 nm). The final concentration of DMSO in each well is 3% and has no effect on enzyme stability or activity. […] All components of the assay including protein, substrate and inhibitor are stored as frozen aliquots and thawed immediately prior to the assay.
Tables 1 and 2. Procaspase activation as a result of incubation with compound for 5 h at 37° C. (+++ EC50˜0.5-10 μM; ++ EC50˜10-50 μM; + EC50˜50-200 μM; -no activation observed; ND not determined).

Where [1] appears, read: incubation with compound for 5 h at 37° C., 100 nM procaspase, read-out: Procaspase Activation 3.

The structures appear in SMILES notation. Like-named read-outs stand apart in the source and are kept apart here.

For the compound `COc1ccc2cc(-c3cccc(NC(=O)c4cc5cccc(O)c5oc4=O)c3)ccc2c1` [compound 77, 8-Hydroxy-2-oxo-2H-chromene-3-carboxylic acid [3-(6-methoxy-naphthalen-2-yl)-phenyl]-amide], the EC50 at procaspase-6 was > 100 µM; at procaspase-3 (setting [1]) it was > 100 µM; on procaspase-7, 0.5 to 10 µM.
For the compound `COc1ccc2cc(-c3cccc(NC(=O)c4cc5cccc(OC)c5oc4=O)c3)ccc2c1` [compound 78, 8-Methoxy-2-oxo-2H-chromene-3-carboxylic acid [3-(6-methoxy-naphthalen-2-yl)-phenyl]-amide], the EC50 at procaspase-6, on procaspase-3 (setting [1]) and at procaspase-7 was > 100 µM each time.
On to `COc1ccc2cc(-c3cccc(NC(=O)c4cc5cccc(OC(F)(F)F)c5oc4=O)c3)ccc2c1` [compound 79, 8-Trifluoromethoxy-2-oxo-2H-chromene-3-carboxylic acid [3-(6-methoxy-naphthalen-2-yl)-phenyl]-amide], for which the EC50 at procaspase-6, at procaspase-3 (setting [1]) and on procaspase-7 was > 100 µM throughout.
For `O=C(Nc1cccc(-c2ccc3ccccc3c2)c1)c1cc2cccc(O)c2oc1=O` [compound 80, 8-Hydroxy-2-oxo-2H-chromene-3-carboxylic acid (3-Naphthalen-2-yl-phenyl)-amide], the EC50 at procaspase-6, on procaspase-3 (setting [1]) and at procaspase-7 was > 100 µM in each case.
For the compound `COc1cccc2cc(C(=O)Nc3cccc(-c4ccc5ccccc5c4)c3)c(=O)oc12` [compound 81, 8-Methoxy-2-oxo-2H-chromene-3-carboxylic acid (3-Naphthalen-2-yl-phenyl)-amide], the EC50 at procaspase-6, on procaspase-3 (setting [1]) and on procaspase-7 was > 100 µM in each case.
With `O=C(Nc1cccc(-c2ccc3ccccc3c2)c1)c1cc2cccc(OC(F)(F)F)c2oc1=O` [compound 82, 8-Trifluoromethoxy-2-oxo-2H-chromene-3-carboxylic acid (3-Naphthalen-2-yl-phenyl)-amide], the EC50 on procaspase-6, on procaspase-3 (setting [1]) and at procaspase-7 was > 100 µM in each case.
As for `O=C(Nc1cccc(-c2cnc3ccccc3c2)c1)c1cc2cccc(O)c2oc1=O` [compound 83, 8-Hydroxy-2-oxo-2H-chromene-3-carboxylic acid [3-Quinolin-3-yl-phenyl]-amide], the EC50 on procaspase-6, on procaspase-3 (setting [1]) and at procaspase-7 was > 100 µM throughout.
Take `COc1cccc2cc(C(=O)Nc3cccc(-c4cnc5ccccc5c4)c3)c(=O)oc12` [compound 84, 8-Methoxy-2-oxo-2H-chromene-3-carboxylic acid [3-Quinolin-3-yl-phenyl]-amide]: the EC50 at procaspase-6, at procaspase-3 (setting [1]) and at procaspase-7 was > 100 µM throughout.
For the compound `O=C(Nc1cccc(-c2cnc3ccccc3c2)c1)c1cc2cccc(OC(F)(F)F)c2oc1=O` [compound 85, 8-Trifluoromethoxy-2-oxo-2H-chromene-3-carboxylic acid [3-Quinolin-3-yl-phenyl]-amide], the EC50 on procaspase-6, on procaspase-3 (setting [1]) and on procaspase-7 was > 100 µM throughout.
`O=C(Nc1cccc(-c2ccc3c(c2)OCCO3)c1)c1cc2cccc(O)c2oc1=O` [compound 86, 8-Hydroxy-2-oxo-2H-chromene-3-carboxylic acid [3-(2,3-dihydro-benzo[1,4]dioxin-6-yl)-phenyl]-amide]: the EC50 at procaspase-6, at procaspase-3 (setting [1]) and at procaspase-7 was > 100 µM each time.
On to `COc1cccc2cc(C(=O)Nc3cccc(-c4ccc5c(c4)OCCO5)c3)c(=O)oc12` [compound 87, 8-Methoxy-2-oxo-2H-chromene-3-carboxylic acid [3-(2,3-dihydro-benzo[1,4]dioxin-6-yl)-phenyl]-amide], for which the EC50 at procaspase-6, on procaspase-3 (setting [1]) and on procaspase-7 was > 100 µM in each case.
With `O=C(Nc1cccc(-c2ccc3c(c2)OCCO3)c1)c1cc2cccc(OC(F)(F)F)c2oc1=O` [compound 88, 8-Trifluoromethoxy-2-oxo-2H-chromene-3-carboxylic acid [3-(2,3-dihydro-benzo[1,4]dioxin-6-yl)-phenyl]-amide], the EC50 at procaspase-6, on procaspase-3 (setting [1]) and on procaspase-7 was > 100 µM throughout.
On to `N#Cc1ccccc1-c1cccc(NC(=O)c2cc3cccc(O)c3oc2=O)c1` [compound 89, 8-Hydroxy-2-oxo-2H-chromene-3-carboxylic acid (2′-cyano-biphenyl-3-yl)-amide], for which the EC50 on procaspase-6, at procaspase-3 (setting [1]) and at procaspase-7 was > 100 µM in each case.
For `COc1cccc2cc(C(=O)Nc3cccc(-c4ccccc4C#N)c3)c(=O)oc12` [compound 90, 8-Methoxy-2-oxo-2H-chromene-3-carboxylic acid (2′-cyano-biphenyl-3-yl)-amide], the EC50 at procaspase-6, on procaspase-3 (setting [1]) and at procaspase-7 was > 100 µM in each case.
For the compound `N#Cc1ccccc1-c1cccc(NC(=O)c2cc3cccc(OC(F)(F)F)c3oc2=O)c1` [compound 91, 8-Trifluoromethoxy-2-oxo-2H-chromene-3-carboxylic acid (2′-cyano-biphenyl-3-yl)-amide], the EC50 at procaspase-6, on procaspase-3 (setting [1]) and on procaspase-7 was > 100 µM in each case.
As to `O=C(Nc1cccc(-c2ccc3[nH]ccc3c2)c1)c1cc2cccc(O)c2oc1=O` [compound 92, 8-Hydroxy-2-oxo-2H-chromene-3-carboxylic acid (3-(1H-Indol-5-yl)-phenyl)-amide], the EC50 at procaspase-6, on procaspase-3 and at procaspase-7 was > 100 µM each time.
For the compound `COc1cccc2cc(C(=O)Nc3cccc(-c4ccc5[nH]ccc5c4)c3)c(=O)oc12` [compound 93, 8-Methoxy-2-oxo-2H-chromene-3-carboxylic acid (3-(1H-Indol-5-yl)-phenyl)-amide], the EC50 on procaspase-6, at procaspase-3 and at procaspase-7 was > 100 µM in each case.
As to `O=C(Nc1cccc(-c2ccc3[nH]ccc3c2)c1)c1cc2cccc(OC(F)(F)F)c2oc1=O` [compound 94, 8-Trifluoromethoxy-2-oxo-2H-chromene-3-carboxylic acid (3-(1H-Indol-5-yl)-phenyl)-amide], the EC50 on procaspase-6, on procaspase-3 and at procaspase-7 was > 100 µM each time.
As for `CC(=O)Nc1ccccc1-c1cccc(NC(=O)c2cc3cccc(O)c3oc2=O)c1` [compound 95, 8-Hydroxy-2-oxo-2H-chromene-3-carboxylic acid (2′-acetylamino-biphenyl-3-yl)-amide], the EC50 at procaspase-6, at procaspase-3 (setting [1]) and on procaspase-7 was > 100 µM each time.
For `COc1cccc2cc(C(=O)Nc3cccc(-c4ccccc4NC(C)=O)c3)c(=O)oc12` [compound 96, 8-Methoxy-2-oxo-2H-chromene-3-carboxylic acid (2′-acetylamino-biphenyl-3-yl)-amide], the EC50 at procaspase-6, at procaspase-3 (setting [1]) and at procaspase-7 was > 100 µM throughout.
